Measurements taken from paper PMC2685802, “Daptomycin in experimental murine pneumococcal meningitis” (BMC Infectious Diseases, 2009).
Read-outs that look alike come from different tables or passages of the source.

What was measured:
[1] = human, 6 mg/kg q.d. intravenously (highest FDA-approved dose); no reference given; cited from earlier work
[2] = tested on: penicillin-resistant pneumococcal strains; conditions: cited from earlier work
From the text: Four studies of daptomycin treatment of experimental meningitis have been reported. […] Similarly, Gerber et al. reported bactericidal activity in a rabbit model of Staphyloco ...

[3] = tested on: Streptococcus pneumoniae A 66.1 serotype 3 (Xen 10); type: in vivo, mice
Method: This study was approved by the Institutional Animal Care and Use Committee of the Mayo Clinic, Rochester, Minnesota. Ninety-six 25–30 gram immunocompetent hairless mice were divided into three treatment groups. Sixteen hours prior to treatment, mice were anesthetized using ketamine and xylazine (45 mg/kg and 5 mg/kg I.M., respectively) and 3 × 10^4 cfu of bacteria in a 20 μl volume were inoculated into the cisterna magna. The time of treatment was selected as the latest time point at which antimicrobial treatment could realistically lead to recovery. […] At 20 hours post infection an additional dose of vancomycin 50 mg/kg was given to the vancomycin-treated animals. Mice not receiving vancomycin at 20 hours were injected with an equal volume of saline. At 16, 20, and 24 hours post infection, 8, 40 and 48 animals, respectively were re anesthetized and cerebrospinal fluid (CSF) was collected by way of puncture from the cisterna magna (using a 28 G 1/2 needle 0.3 × 13 mm from BD Microlance). CSF white-blood cell count was determined and bacterial burden was quantified in CSF by plating serial 10-fold dilutions in sterile isotonic saline onto blood agar plates. Results were expressed as log10 cfu/ml; the detection limit was 20 cfu/ml of CSF. Following collection of CSF, animals were euthanized with a lethal dose of pentobarbital, their brains collected and placed in 10% neutral buffered formalin.
Bacterial concentrations between treatment groups at each time point were compared using the student t-test. Correlation analysis between log10 bacterial CSF titers and log10 photons/second was calculated using SPSS statistical software. For inflammation, neuronal necrosis, and apoptosis scores, statistical analysis included a nonparametric Kruskal-Wallis test followed by a Dunn's test comparing all treatment groups using a confidence level of 95%.

[4] = Serum antibiotic concentration in mice after intraperitoneal dose (microbiological assay); type: in vivo; conditions: single dose, detection limit 0.5 μg/ml
Method: The 30 minute serum concentration of vancomycin or daptomycin in 25–30 gram immunocompetent hairless mice (Charles River Laboratories, Wilmington, MA) was determined following intraperitoneal injection of 40, 50 and 60 mg/kg vancomycin or 20, 30, 40 and 50 mg/kg daptomycin, respectively. Pharmacokinetic profiles were determined by injecting 50 mg/kg vancomycin or 25 mg/kg daptomycin intraperitoneally and obtaining serum samples 30, 60, 120, 180 and 240 minutes post injection. Drug activity was measured using a microbiological assay technique. Standard curves for serum drug level determination were performed by making drug dilutions in pooled mouse serum (Innovative Research, Incorporated, Southfield, MI). The reporter bacteria for the vancomycin and daptomycin bioassays were Bacillus subtilis and Micrococcus luteus, respectively. Zones of growth inhibition were measured to the nearest millimeter. The detection limit for both drugs was 0.5 μg/ml.

S. pneumoniae Xen10 = assay: Time kill assay; type: cell-based, Streptococcus pneumoniae; conditions: daptomycin 1 μg/ml or vancomycin 2 μg/ml alone and with dexamethasone 100 μg/ml
From the text: Figure 1 Time kill assay. […] DP, daptomycin; VN, vancomycin; DX, dexamethasone.

[5] = vancomycin 50 mg/kg intraperitoneally, bioassay with Bacillus subtilis

| Compound | serum Cmax [1] [µg/mL] | release of [3H]choline (marker of cell wall lysis) ([2]; compared with ceftriaxone treatment) | penetration across inflamed meninges ([2]; rabbit, in vivo) [%] | CSF titers at 24 hours post infection ([3]; mouse, in vivo) [log10 cfu/ml] | drop of bacterial titers four hours after a single treatment ([3]; mouse, in vivo) [log10] | level at 4 h ([4]; hairless (immunocompetent), mouse, serum, ip, daptomycin 25 mg/kg intraperitoneally, bioassay with Micrococcus luteus) [µg/mL] | level at 0.5 h ([4]; hairless (immunocompetent), mouse, serum, ip, daptomycin 25 mg/kg intraperitoneally, bioassay with Micrococcus luteus, read-out: serum concentration at 30 minutes) [µg/mL] | in vitro bactericidal activity, effect of dexamethasone (S. pneumoniae Xen10) | drop of bacterial titers four hours after a single treatment ([3]; CSF, mice, accompanied by 1 mg/kg of dexamethasone, daptomycin 25 mg/kg or vancomycin 50 mg/kg i.p.) [log10] | CSF titers at 24 hours post infection ([3]; mice, vancomycin 50 mg/kg at 16 and 20 hours or daptomycin 25 mg/kg at 16 hours, i.p., with dexamethasone 1 mg/kg every 6 hours) [log10 cfu/ml] | serum level at 30 minutes [4, 5] [µg/mL] | serum level at 3 hours [4, 5] [µg/mL] |
| --- | --- | --- | --- | --- | --- | --- | --- | --- | --- | --- | --- | --- |
| CCCCCCCCCC(=O)N[C@@H](Cc1c[nH]c2ccccc12)C(=O)N[C@H](CC(N)=O)C(=O)N[C@@H](CC(=O)O)C(=O)N[C@@H]1C(=O)NCC(=O)N[C@@H](CCCN)C(=O)N[C@@H](CC(=O)O)C(=O)N[C@H](C)C(=O)N[C@@H](CC(=O)O)C(=O)NCC(=O)N[C@H](CO)C(=O)N[C@@H]([C@H](C)CC(=O)O)C(=O)N[C@@H](CC(=O)c2ccccc2N)C(=O)O[C@@H]1C [daptomycin] | 90 to 100 | negligible | 6 | 3.9 | 1.33 | 16 | 127 | not affected |  |  |  |  |
| CN[C@H](CC(C)C)C(=O)N[C@H]1C(=O)N[C@@H](CC(N)=O)C(=O)N[C@H]2C(=O)N[C@H]3C(=O)N[C@H](C(=O)N[C@H](C(=O)O)c4cc(O)cc(O)c4-c4cc3ccc4O)[C@H](O)c3ccc(c(Cl)c3)Oc3cc2cc(c3O[C@@H]2O[C@H](CO)[C@@H](O)[C@H](O)[C@H]2O[C@H]2C[C@](C)(N)[C@H](O)[C@H](C)O2)Oc2ccc(cc2Cl)[C@H]1O [vancomycin] |  |  |  |  |  |  |  | not affected | 0.43 | 3.4 | 55 | < 0.5 |
